# Experimental data from patent US12077503B2, “Substituted cyclic amides and their use as herbicides” (FMC CORPORATION, priority 2015, dated 2024).
# Columns and labels:
# Type in all cases: in vivo
# [1] = tested on: barnyardgrass (Echinochloa crus-galli); assay: Test G Pre-Emergence Protocol; conditions: Echinochloa crus-galli, pre-emergence, 312 h, evaluated after 13 days; for pest or weed control at 15.625 g/ha: 15.625 g ai/ha; for pest or weed control at 15.625 g/ha / pest or weed control at 250 g/ha: read-out: Barnyardgrass damage rating (100=total damage to plant; 0=no damage to plant); for pest or weed control at 62.5 g/ha: 62.5 g ai/ha, 100=total damage to plant, 0=no damage to plant, read-out: Barnyardgrass damage rating; for pest or weed control at 250 g/ha: 250 g ai/ha
# Method in brief: (§1)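 Seeds were sown in standard soil and kept one day in a glasshouse (24/16° C day/night, 14 h light, 65% humidity), then sprayed with compound in acetone/water (50:50) containing 0.5% Tween 20 at 15.625, 62.5 or 250 g/ha. Damage was scored after 13 days (0 = none, 100 = total).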
# corn (Zea mays) [2] = assay: Test G Pre-Emergence Protocol; conditions: Zea mays, pre-emergence, 312 h, evaluated after 13 days; for plant injury at 15.625 g/ha: 15.625 g ai/ha; for plant injury at 15.625 g/ha / plant injury at 250 g/ha: read-out: Corn damage rating (100=total damage to plant; 0=no damage to plant); for plant injury at 62.5 g/ha: 62.5 g ai/ha, 100=total damage to plant, 0=no damage to plant, read-out: Corn damage rating; for plant injury at 250 g/ha: 250 g ai/ha
# Method in brief: as §1
# [3] = tested on: giant foxtail (Setaria faberi); assay: Test G Pre-Emergence Protocol; conditions: Setaria faberi, pre-emergence, 312 h, evaluated after 13 days; for pest or weed control at 15.625 g/ha: 15.625 g ai/ha; for pest or weed control at 15.625 g/ha / pest or weed control at 250 g/ha: read-out: Foxtail, Giant damage rating (100=total damage to plant; 0=no damage to plant); for pest or weed control at 62.5 g/ha: 62.5 g ai/ha, 100=total damage to plant, 0=no damage to plant, read-out: Foxtail, Giant damage rating; for pest or weed control at 250 g/ha: 250 g ai/ha
# Method in brief: as §1
# [4] = tested on: ivy-leaved morning glory (Ipomoea hederacea); assay: Test G Pre-Emergence Protocol; conditions: Ipomoea, pre-emergence, 312 h, evaluated after 13 days; for pest or weed control at 15.625 g/ha: 15.625 g ai/ha; for pest or weed control at 15.625 g/ha / pest or weed control at 250 g/ha: read-out: Morningglory, Ivy-leaved damage rating (100=total damage to plant; 0=no damage to plant); for pest or weed control at 62.5 g/ha: 62.5 g ai/ha, 100=total damage to plant, 0=no damage to plant, read-out: Morningglory, Ivy-leaved damage rating; for pest or weed control at 250 g/ha: 250 g ai/ha
# Method in brief: as §1
# [5] = tested on: redroot pigweed (Amaranthus retroflexus); assay: Test G Pre-Emergence Protocol; conditions: Amaranthus retroflexus, pre-emergence, 312 h, evaluated after 13 days; for pest or weed control at 15.625 g/ha: 15.625 g ai/ha; for pest or weed control at 15.625 g/ha / pest or weed control at 250 g/ha: read-out: Pigweed, Redroot damage rating (100=total damage to plant; 0=no damage to plant); for pest or weed control at 62.5 g/ha: 62.5 g ai/ha, 100=total damage to plant, 0=no damage to plant, read-out: Pigweed, Redroot damage rating; for pest or weed control at 250 g/ha: 250 g ai/ha
# Method in brief: as §1
# [6] = tested on: velvetleaf (Abutilon theophrasti); assay: Test G Pre-Emergence Protocol; conditions: Abutilon theophrasti, pre-emergence, 312 h, evaluated after 13 days; for pest or weed control at 15.625 g/ha: 15.625 g ai/ha; for pest or weed control at 15.625 g/ha / pest or weed control at 250 g/ha: read-out: Velvetleaf damage rating (100=total damage to plant; 0=no damage to plant); for pest or weed control at 62.5 g/ha: 62.5 g ai/ha, 100=total damage to plant, 0=no damage to plant, read-out: Velvetleaf damage rating; for pest or weed control at 250 g/ha: 250 g ai/ha
# Method in brief: as §1
# [7] = tested on: barnyardgrass (Echinochloa crus-galli); assay: Test G Post-Emergence Protocol; conditions: Echinochloa crus-galli, post-emergence, 312 h, read-out: Barnyardgrass damage rating; for pest or weed control at 15.625 g/ha: 15.625 g ai/ha, evaluated after 13 days (100=total damage to plant; 0=no damage to plant); for pest or weed control at 62.5 g/ha: 62.5 g ai/ha; for pest or weed control at 62.5 g/ha / pest or weed control at 250 g/ha: evaluated after 13 days, 100=total damage to plant, 0=no damage to plant; for pest or weed control at 250 g/ha: 250 g ai/ha
# Method in brief: (§2)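 Scores run 0 (no damage) to 100 (total damage) and were taken 13 days after spraying. Plants had been raised in pots for 8 days under glasshouse control (24/16 °C, 14 h photoperiod, 65% humidity) and then treated at 15.625, 62.5 or 250 g/ha.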
# corn (Zea mays) [8] = assay: Test G Post-Emergence Protocol; conditions: Zea mays, post-emergence, 312 h, read-out: Corn damage rating; for plant injury at 15.625 g/ha: 15.625 g ai/ha, evaluated after 13 days (100=total damage to plant; 0=no damage to plant); for plant injury at 62.5 g/ha: 62.5 g ai/ha; for plant injury at 62.5 g/ha / plant injury at 250 g/ha: evaluated after 13 days, 100=total damage to plant, 0=no damage to plant; for plant injury at 250 g/ha: 250 g ai/ha
# Method in brief: as §2
# [9] = tested on: giant foxtail (Setaria faberi); assay: Test G Post-Emergence Protocol; conditions: Setaria faberi, post-emergence, 312 h, read-out: Foxtail, Giant damage rating; for pest or weed control at 15.625 g/ha: 15.625 g ai/ha, evaluated after 13 days (100=total damage to plant; 0=no damage to plant); for pest or weed control at 62.5 g/ha: 62.5 g ai/ha; for pest or weed control at 62.5 g/ha / pest or weed control at 250 g/ha: evaluated after 13 days, 100=total damage to plant, 0=no damage to plant; for pest or weed control at 250 g/ha: 250 g ai/ha
# Method in brief: as §2
# [10] = tested on: ivy-leaved morning glory (Ipomoea hederacea); assay: Test G Post-Emergence Protocol; conditions: Ipomoea, post-emergence, 312 h, read-out: Morningglory, Ivy-leaved damage rating; for pest or weed control at 15.625 g/ha: 15.625 g ai/ha, evaluated after 13 days (100=total damage to plant; 0=no damage to plant); for pest or weed control at 62.5 g/ha: 62.5 g ai/ha; for pest or weed control at 62.5 g/ha / pest or weed control at 250 g/ha: evaluated after 13 days, 100=total damage to plant, 0=no damage to plant; for pest or weed control at 250 g/ha: 250 g ai/ha
# Method in brief: as §2
# [11] = tested on: redroot pigweed (Amaranthus retroflexus); assay: Test G Post-Emergence Protocol; conditions: Amaranthus retroflexus, post-emergence, 312 h, read-out: Pigweed, Redroot damage rating; for pest or weed control at 15.625 g/ha: 15.625 g ai/ha, evaluated after 13 days (100=total damage to plant; 0=no damage to plant); for pest or weed control at 62.5 g/ha: 62.5 g ai/ha; for pest or weed control at 62.5 g/ha / pest or weed control at 250 g/ha: evaluated after 13 days, 100=total damage to plant, 0=no damage to plant; for pest or weed control at 250 g/ha: 250 g ai/ha
# Method in brief: as §2
# [12] = tested on: velvetleaf (Abutilon theophrasti); assay: Test G Post-Emergence Protocol; conditions: Abutilon theophrasti, post-emergence, 312 h, read-out: Velvetleaf damage rating; for pest or weed control at 15.625 g/ha: 15.625 g ai/ha, evaluated after 13 days (100=total damage to plant; 0=no damage to plant); for pest or weed control at 62.5 g/ha: 62.5 g ai/ha; for pest or weed control at 62.5 g/ha / pest or weed control at 250 g/ha: evaluated after 13 days, 100=total damage to plant, 0=no damage to plant; for pest or weed control at 250 g/ha: 250 g ai/ha
# Method in brief: as §2
Compound,pest or weed control at 15.625 g/ha [1] [%],pest or weed control at 62.5 g/ha [1] [%],pest or weed control at 250 g/ha [1] [%],plant injury at 15.625 g/ha (corn (Zea mays) [2]) [%],plant injury at 62.5 g/ha (corn (Zea mays) [2]) [%],plant injury at 250 g/ha (corn (Zea mays) [2]) [%],pest or weed control at 15.625 g/ha [3] [%],pest or weed control at 62.5 g/ha [3] [%],pest or weed control at 250 g/ha [3] [%],pest or weed control at 15.625 g/ha [4] [%],pest or weed control at 62.5 g/ha [4] [%],pest or weed control at 250 g/ha [4] [%],pest or weed control at 15.625 g/ha [5] [%],pest or weed control at 62.5 g/ha [5] [%],pest or weed control at 250 g/ha [5] [%],pest or weed control at 15.625 g/ha [6] [%],pest or weed control at 62.5 g/ha [6] [%],pest or weed control at 250 g/ha [6] [%],pest or weed control at 15.625 g/ha [7] [%],pest or weed control at 62.5 g/ha [7] [%],other results
Cc1c(F)cccc1NC(=O)[C@@H]1C(=O)N(C)C[C@H]1c1cccc(OCC(F)(F)F)c1 (racemic) [Compound 1764],40,70,80,0,20,70,60,70,80,0,0,20,0,10,30,0,10,30,40,50,pest or weed control at 250 g/ha [7]: 80%; plant injury at 15.625 g/ha (corn (Zea mays) [8]): 10%; plant injury at 62.5 g/ha (corn (Zea mays) [8]): 10%; plant injury at 250 g/ha (corn (Zea mays) [8]): 70%; pest or weed control at 15.625 g/ha [9]: 70%; pest or weed control at 62.5 g/ha [9]: 80%; pest or weed control at 250 g/ha [9]: 80%; pest or weed control at 15.625 g/ha [10]: 10%; pest or weed control at 62.5 g/ha [10]: 30%; pest or weed control at 250 g/ha [10]: 70%; pest or weed control at 15.625 g/ha [11]: 0%; pest or weed control at 62.5 g/ha [11]: 10%; pest or weed control at 250 g/ha [11]: 30%; pest or weed control at 15.625 g/ha [12]: 20%; pest or weed control at 62.5 g/ha [12]: 40%; pest or weed control at 250 g/ha [12]: 60%
COCCOc1cccc([C@@H]2CN(C)C(=O)[C@H]2C(=O)Nc2cccc(F)c2C)c1 (racemic) [Compound 1765],20,50,60,0,0,20,50,70,90,0,0,0,0,0,0,0,0,0,0,30,pest or weed control at 250 g/ha [7]: 70%; plant injury at 15.625 g/ha (corn (Zea mays) [8]): 0%; plant injury at 62.5 g/ha (corn (Zea mays) [8]): 10%; plant injury at 250 g/ha (corn (Zea mays) [8]): 10%; pest or weed control at 15.625 g/ha [9]: 10%; pest or weed control at 62.5 g/ha [9]: 60%; pest or weed control at 250 g/ha [9]: 70%; pest or weed control at 15.625 g/ha [10]: 0%; pest or weed control at 62.5 g/ha [10]: 0%; pest or weed control at 250 g/ha [10]: 20%; pest or weed control at 15.625 g/ha [11]: 0%; pest or weed control at 62.5 g/ha [11]: 0%; pest or weed control at 250 g/ha [11]: 0%; pest or weed control at 15.625 g/ha [12]: 0%; pest or weed control at 62.5 g/ha [12]: 0%; pest or weed control at 250 g/ha [12]: 0%
